{"source": "patent US20240239814A1", "about": "“Complexes Of CU(I) As Antitumor Agents” (priority 2021, published 2024)", "origin": "cited, not measured here", "key": {"[1]": {"test_system": "panel of human cancer cells", "details": "2D monolayer, cited from earlier work"}, "[2]": {"test_system": "human cancer cell lines endowed with acquired or natural resistance to CDDP or to OXP", "details": "fold lower IC50 in resistant cell lines; cited from earlier work"}, "Lewis Lung Carcinoma": {"test_system": "Lewis Lung Carcinoma", "details": "different schedules, compared with CDDP; cited from earlier work"}, "[3]": {"test_system": "human colorectal cancer xenografts", "details": "oxaliplatin-sensitive and resistant models; cited from earlier work"}, "[4]": {"test_system": "LoVo colon cancer spheroids", "details": "cited from earlier work"}, "[5]": {"details": "animals of the Lewis Lung Carcinoma model; cited from earlier work"}, "[6]": {"details": "compared with CDDP; cited from earlier work"}, "proteasome": {"test_system": "proteasome", "details": "cited from earlier work"}, "[7]": {"details": "cited from earlier work"}, "[8]": {"test_system": "HCT-15 colon cancer spheroids", "details": "HCT-15 spheroids; cited from earlier work"}, "[9]": {"test_system": "human non transformed cells", "details": "average IC50 normal cells / average IC50 malignant cells; cited from earlier work"}}, "data": [{"smiles": "F[P-](F)(F)(F)(F)F.OCP(CO)CO.OCP(CO)CO.OCP(CO)CO.OCP(CO)CO.[Cu+]", "note": "[[Cu(thp)4][PF6]]", "values": [{"measurement": "cytotoxicity relative to CDDP", "setting": "[1]; fold more cytotoxic than CDDP", "result": "up to 50 fold"}, {"measurement": "cytotoxicity relative to OXP", "setting": "[1]; fold more cytotoxic than OXP", "result": "≤ 30", "unit": "fold"}, {"measurement": "IC50 relative to the reference metallodrugs", "setting": "[2]", "result": "up to 35 fold"}, {"measurement": "inhibition of proliferation of tumor cell population in vivo", "setting": "Lewis Lung Carcinoma", "result": "superior to that induced by the gold-standard drug CDDP"}, {"measurement": "efficacy of chemotherapy in xenografts", "setting": "[3]", "result": "extremely effective in both oxaliplatin-sensitive and resistant models"}, {"measurement": "IC50 relative to OXP", "setting": "[4]", "result": "very similar to those of OXP"}, {"measurement": "clinical signs of toxicity", "setting": "[5]", "result": "no clinical signs of toxicity and no anorexia"}, {"measurement": "median lethal doses (LD50) and maximum tolerated doses (MTD)", "setting": "[6]", "result": "significantly higher that those recorded with CDDP"}, {"measurement": "effect on proteolytic activities of proteasome", "setting": "proteasome", "result": "inhibit the proteolytic activities of proteasome"}, {"measurement": "solubility and stability in water solution", "setting": "[7]", "result": "highly soluble and stable in water solution"}, {"measurement": "IC50 relative to OXP", "setting": "[8]", "result": "very similar to those of OXP"}, {"measurement": "selectively index relative to CDDP", "setting": "[9]", "result": "about 30 times"}, {"measurement": "selectively index relative to OXP", "setting": "[9]", "result": 3, "unit": "times"}]}]}
